Assay results from article PMC12257299 (RSC Advances, 2025).

Molecular target: GSK-3β (Homo sapiens, UniProt P49841)
Experiment: ADP-Glo kinase assay with Promega GSK-3β enzyme
Assay type: biochemical

GSK-3β, sequence (P49841 whole entry): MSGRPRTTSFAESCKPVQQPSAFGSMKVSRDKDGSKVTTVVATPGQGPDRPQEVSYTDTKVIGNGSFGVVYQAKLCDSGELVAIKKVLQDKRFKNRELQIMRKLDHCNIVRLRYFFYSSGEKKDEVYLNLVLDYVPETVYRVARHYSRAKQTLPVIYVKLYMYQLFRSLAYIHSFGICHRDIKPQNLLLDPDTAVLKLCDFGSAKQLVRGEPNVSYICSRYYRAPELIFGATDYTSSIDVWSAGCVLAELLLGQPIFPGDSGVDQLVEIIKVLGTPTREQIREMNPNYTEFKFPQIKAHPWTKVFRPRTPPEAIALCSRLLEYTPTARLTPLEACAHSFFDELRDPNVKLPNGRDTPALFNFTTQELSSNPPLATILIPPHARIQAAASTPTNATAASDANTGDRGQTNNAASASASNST

IC50: 59.8 µM
SMILES: COc1ccc(Cn2cc(CN3C(=O)C(=NNc4ccccc4)c4ccccc43)nn2)cc1 [6Ec, 1-((1-(4-Methoxybenzyl)-1H-1,2,3-triazol-4-yl)methyl)-3-(2-phenylhydrazono) indolin-2-one]
